Test results reported in US4001325A, “α-Chloroacetanilide selective herbicides” (Diamond Shamrock Corporation, priority 1973, dated 1977).

What was measured:
[1] = tested on: grass species: red millet, green foxtail, Japanese millet; assay: Greenhouse preemergence herbicide test, grasses; format: in vivo, Panicum milliacem, Setaria viridis, Echinochloa frumentacea; settings: pre-emergence, 336 h, two weeks after treatment
Experimental: To illustrate the preemergence herbicidal efficiency of the alkyl-substituted 2-chloro-N-propargylacetanilides of this invention, test formulations are prepared of each compound by mixing 20 ml of an acetone solution containing 0.125 g of chemical with 20 ml of water containing 0.01 g of Triton X-155 surfactant. The resultant formulations contain 3125 ppm of test compound, 50% by volume of acetone and 0.025% by weight of surfactant. Appropriate lower concentrations are obtained by diluting this formulation with surfactant-acetone solution so that the concentration of adjuvants is maintained at the original levels.
Seeds of three broadleaf and three grass species are planted in soil contained in 10 inch × 8 inch × 3 inch aluminum pans filled with 1.5 inches of composted soil. The broadleaf species are pigweed (Amaranthus retroflexus), velvetleaf (Abutilon theophrasti), and morningglory (Ipomea coccinea); the grasses are red millet (Panicum milliacem), green foxtail (Setaria viridis) and Japanese millet (Echinochloa frumentacea).
The seeded pans are sprayed so that the soil surface is uniformly covered with dilutions of the stock formulation providing dosage rates of the test compounds as shown in the following table.
Two weeks after treatment, percent control (plant kill) at each dosage rate is estimated with results as follows: […]

Yellow Foxtail [2] = assay: Example 18 preemergence herbicide test in different soils, % control; format: in vivo; settings: three weeks
Experimental: (§1) To further illustrate the herbicidal activity of compounds of this invention in different types of soil as would be encountered in different crop growing localities, a preemergence herbicide test is conducted generally as outlined previously herein. Two light sandy soils are employed containing 0.7% and 1.8% organic matter (O.M.), respectively, along with two loam-type, heavier soils containing either 2.0% or 5-5.5% organic matter (O.M.).
(§2) The test plots are all sprayed uniformly with formulations of the test compounds providing 2.0, 1.0, 0.5, and 0.25 pound of active chemical per acre (lb/A).
(§3) Prior to treatment, the soil plots are sown to field corn, soybean, and grain sorghum crops and seeds of barnyard-grass and yellow foxtail.
(§4) Three weeks after planting, the percent control of plant growth is rated from 0% (no injury) to 100% (total destruction).

Sorghum = assay: Example 18 phytotoxic effects on crop stands in different soils; format: in vivo, grain sorghum
Experimental: as §1, §2, §3
Three weeks after planting, the percent control of plant growth is rated from 0% (no injury) to 100% (total destruction). The results obtained are as follows:
Phytotoxic effects on the crop stands are similarly rated with the following results: […]

Yellow Foxtail [3] = assay: Example 17 selective herbicidal activity in corn crop, weed kill; format: in vivo, Setaria lutescens; settings: Setaria, 3-4 weeks after planting
Description: (§5) This example illustrates the selective herbicidal activity of two of the presently preferred compounds of this invention against various weed species in a corn crop.
(§6) Plots of light sandy soil, cleared of all weeds, are uniformly treated with aqueous dispersions prepared from an emulsifiable concentrate containing 2- 4 pounds of active ingredient per gallon. Diluted aqueous dispersions are applied as surface treatments at 2.0, 1.0, 0.5, and 0.25 pound of active ingredient per acre (lb/A).
(§7) The treated test plots are sown to corn and with seeds of the following weed species:
(§8) Three to four weeks after planting, the degree of damage to both the corn stands and the weed plants is assessed from a rating of 0% (no injury) to 100% (complete destruction).

Goosegrass = assay: as above; format: in vivo, Eleusine indica; settings: 3-4 weeks after planting
Description: as §5, §6, §7, §8

Morningglory = assay: as above; format: in vivo, Ipomoea sp.; settings: Ipomoea, 3-4 weeks after planting
Description: as §5, §6, §7, §8

Fall Panicum = assay: as above; format: in vivo; settings: Panicum dichotomiflorum, 3-4 weeks after planting
Description: as §5, §6, §7, §8

Johnsongrass = assay: as above; format: in vivo; settings: Sorghum halepense, 3-4 weeks after planting
Description: as §5, §6, §7, §8

Velvetleaf = assay: as above; format: in vivo; settings: Abutilon theophrasti, 3-4 weeks after planting
Description: as §5, §6, §7, §8

Barnyardgrass = assay: Example 18 preemergence herbicide test in different soils, % control; format: in vivo, barnyard-grass; settings: three weeks
Experimental: as §1, §2, §3, §4

[4] = 0.5 lb/A, Heavy Soil 5-5.5% O.M.
[5] = 0.5 lb/A, Medium Soil 2.0% O.M.
[6] = 1.0 lb/A, Heavy Soil 5-5.5% O.M.
[7] = 1.0 lb/A, Medium Soil 2.0% O.M.
[8] = 2.0 lb/A, Heavy Soil 5-5.5% O.M.
[9] = 2.0 lb/A, Medium Soil 2.0% O.M.

C#CCN(C(=O)CCl)c1c(CC)cccc1CC [Example 9, 2-Chloro-2',6'-diethyl-N-propargylacetanilide]
pest or weed control at 69.4927 g/ha ([1]; 0.062 lb/A): 85% | pest or weed control at 140.106 g/ha ([1]; 0.125 lb/A): 95% | pest or weed control at 280.212 g/ha ([1]; 0.25 lb/A): 95% | pest or weed control at 560.425 g/ha ([1]; 0.5 lb/A): 90% | pest or weed control at 1120.85 g/ha ([1]; 1.0 lb/A): 95% | % Control, Yellow Foxtail (Yellow Foxtail [2]; [4]): 90% | % Control, Yellow Foxtail (Yellow Foxtail [2]; [5]): 90% | % Control, Yellow Foxtail (Yellow Foxtail [2]; 0.5 lb/A, Sand 0.7% O.M.): 50% | % Control, Yellow Foxtail (Yellow Foxtail [2]; 0.5 lb/A, Sand 1.8% O.M.): 85% | % Control, Yellow Foxtail (Yellow Foxtail [2]; [6]): 100% | % Control, Yellow Foxtail (Yellow Foxtail [2]; [7]): 100% | % Control, Yellow Foxtail (Yellow Foxtail [2]; 1.0 lb/A, Sand 0.7% O.M.): 70% | % Control, Yellow Foxtail (Yellow Foxtail [2]; 1.0 lb/A, Sand 1.8% O.M.): 80% | % Control, Yellow Foxtail (Yellow Foxtail [2]; [8]): 100% | % Control, Yellow Foxtail (Yellow Foxtail [2]; [9]): 100% | % Control, Yellow Foxtail (Yellow Foxtail [2]; 2.0 lb/A, Sand 0.7% O.M.): 100% | % Control, Yellow Foxtail (Yellow Foxtail [2]; 2.0 lb/A, Sand 1.8% O.M.): 100% | % Phytotoxicity, Sorghum (Sorghum; [4]): 35% | % Phytotoxicity, Sorghum (Sorghum; [5]): 40% | % Phytotoxicity, Sorghum (Sorghum; 0.5 lb/A, Sand 0.7% O.M.): 0% | % Phytotoxicity, Sorghum (Sorghum; 0.5 lb/A, Sand 1.8% O.M.): 10% | % Phytotoxicity, Sorghum (Sorghum; [6]): 75% | % Phytotoxicity, Sorghum (Sorghum; [7]): 55% | % Phytotoxicity, Sorghum (Sorghum; 1.0 lb/A, Sand 0.7% O.M.): 10% | % Phytotoxicity, Sorghum (Sorghum; 1.0 lb/A, Sand 1.8% O.M.): 30% | % Phytotoxicity, Sorghum (Sorghum; [8]): 99% | % Phytotoxicity, Sorghum (Sorghum; [9]): 95% | % Phytotoxicity, Sorghum (Sorghum; 2.0 lb/A, Sand 0.7% O.M.): 30% | % Phytotoxicity, Sorghum (Sorghum; 2.0 lb/A, Sand 1.8% O.M.): 70% | mortality at 280.212 g/ha (Yellow Foxtail [3]; 0.25 lb/A): 80% | mortality at 560.425 g/ha (Yellow Foxtail [3]; 0.5 lb/A): 95% | mortality at 1120.85 g/ha (Yellow Foxtail [3]; 1.0 lb/A): 100% | mortality at 2241.7 g/ha (Yellow Foxtail [3]; 2.0 lb/A): 100% | % Weed Kill, Goosegrass (Goosegrass; 0.25 lb/A): 87% | % Weed Kill, Goosegrass (Goosegrass; 0.5 lb/A): 100% | % Weed Kill, Goosegrass (Goosegrass; 1.0 lb/A): 100% | % Weed Kill, Goosegrass (Goosegrass; 2.0 lb/A): 100% | mortality at 280.212 g/ha (Morningglory; 0.25 lb/A): 0% | mortality at 560.425 g/ha (Morningglory; 0.5 lb/A): 0% | mortality at 1120.85 g/ha (Morningglory; 1.0 lb/A): 0% | mortality at 2241.7 g/ha (Morningglory; 2.0 lb/A): 3% | mortality at 280.212 g/ha (Fall Panicum; 0.25 lb/A): 73% | mortality at 560.425 g/ha (Fall Panicum; 0.5 lb/A): 88% | mortality at 1120.85 g/ha (Fall Panicum; 1.0 lb/A): 95% | mortality at 2241.7 g/ha (Fall Panicum; 2.0 lb/A): 100% | mortality at 280.212 g/ha (Johnsongrass; 0.25 lb/A): 0% | mortality at 560.425 g/ha (Johnsongrass; 0.5 lb/A): 37% | mortality at 1120.85 g/ha (Johnsongrass; 1.0 lb/A): 80% | mortality at 2241.7 g/ha (Johnsongrass; 2.0 lb/A): 100% | mortality at 280.212 g/ha (Velvetleaf; 0.25 lb/A): 0% | mortality at 560.425 g/ha (Velvetleaf; 0.5 lb/A): 0% | mortality at 1120.85 g/ha (Velvetleaf; 1.0 lb/A): 6% | mortality at 2241.7 g/ha (Velvetleaf; 2.0 lb/A): 18% | % Control, Barnyardgrass (Barnyardgrass; [4]): 90% | % Control, Barnyardgrass (Barnyardgrass; [5]): 95% | % Control, Barnyardgrass (Barnyardgrass; 0.5 lb/A, Sand 0.7% O.M.): 60% | % Control, Barnyardgrass (Barnyardgrass; 0.5 lb/A, Sand 1.8% O.M.): 85% | % Control, Barnyardgrass (Barnyardgrass; [6]): 98% | % Control, Barnyardgrass (Barnyardgrass; [7]): 100% | % Control, Barnyardgrass (Barnyardgrass; 1.0 lb/A, Sand 0.7% O.M.): 90% | % Control, Barnyardgrass (Barnyardgrass; 1.0 lb/A, Sand 1.8% O.M.): 90% | % Control, Barnyardgrass (Barnyardgrass; [8]): 100% | % Control, Barnyardgrass (Barnyardgrass; [9]): 100% | % Control, Barnyardgrass (Barnyardgrass; 2.0 lb/A, Sand 0.7% O.M.): 100% | % Control, Barnyardgrass (Barnyardgrass; 2.0 lb/A, Sand 1.8% O.M.): 100%
